Measurements published in US6649797B2, “Compounds and methods of use to treat infectious diseases” (The Picower Institute for Medical Research, priority 1996, dated 2003).

Key:
HIV-1ADA = HIV-1ADA production in mitogen-stimulated peripheral blood leukocytes (FIG. 3); assay type: cell-based
Experimental: FIG. 3. The effect of various concentrations of Compound No. 2 on RT activity in the supernatant of HIV-1-infected mitogen-stimulated peripheral blood leukocytes at infected at 10 and 1.0 ng p24/[…], FIGS. 3A and 3B, respectively.
PBMCs were purified by Ficoll-Hypaque centrifugation and activated by 10 μg/ml PHA-P (Sigma) and 20 U/ml recombinant human IL-2 (rhIL-2) in RPMI 1640 supplemented with 10% FBS (HyClone). After 24 h incubation, cells were washed and inoculated with HIV-1ADA in RPMI 1640 supplemented with 10% FBS. After a 2 h adsorption, free virus was washed away and cells were cultured in RPMI 1640 supplemented with 10% FBS and 20 U/ml rhIL-2.
(§1) For the reverse transcriptase (RT) assay, 10 μl of culture supernatant was added to 40 μl of reaction mixture (final composition was 50 mM Tris-HCl, pH 7.8; 20 MM KCl; 5 MM MgCl2; 1 mM DTT; 0.1% Triton X-100; 0.2 OD/ml polyA; 0.2 OD/ml oligo(dT)12-18; and 40 μCi/ml ^3H-dTTP (76 Ci/mmol, DuPont) and incubated 2 hr at 37° C. 5 μl of the reaction mixture was then spotted onto the DE 81 (Whatman) paper. Paper was air dried and washed 5 times with 5% Na2HPO4, followed by rinsing with distilled water. After air drying, paper was put on a Flexi Filter plate (Packard), covered with scintillation fluid and counted in a Top Count Microplate Counter (Packard). Results are expressed as counts per minute in 1 ml of supernatant (cpm/ml).

HIV-1 = test: AZT and Compound No. 2 in combination, HIV-1 infected monocyte cultures, RT activity; assay type: cell-based; settings: for reverse transcriptase activity in supernatant: 100 nM Compound No. 2, AZT 0
Experimental: Primary human monocytes were obtained from peripheral blood by Ficoll-Hypaque centrifugation and adherence to plastic as described previously. Gartner S. P., et al., 1986, Science 233:215. Briefly, after Ficoll-Hypaque (Pharmacia) separation, PBMCs were washed 4 times with DMEM (the last wash was done at 800 rpm to remove platelets) and resuspended in monocyte culture medium [DMEM supplemented with 1 mM glutamine, 10% heat-inactivated human serum, 1% penicillin+streptomycin mixture (Sigma)] at a density of 6×10^6 cells/ml. Cells were seeded in 24-well plates (1 ml per well) and incubated for 2 h at 37° C, 5% CO2. Following incubation, cells were washed 3 times with DMEM to remove non-adherent cells and incubation was continued in monocyte culture medium supplemented with 250 U/ml human M-CSF (Sigma). Cells were allowed to mature for 7 days prior to infection with the monocyte-tropic strain, HIV-1ADA. Nuovo, G. J., et al., 1992, Diagn. Mol. Pathol. 1:98. Two hours after infection, cells were washed with medium and cultured in RPMI supplemented with 10% human serum. In experiments where PCR analysis was performed, virus was pretreated with RNAse-free DNAse (Boehinger-Mannheim) for 2 h at room temperature and then filtered though a 0.2 μm pore nitrocellulose filter prior to infection.
as §1
In view of these premises, the effects on HIV-1 replication in human monocyte cultures of the various concentrations of AZT, alone or in combination with 100 nM Compound No. 2, were tested using the protocols of Sections 6.2.1 and 6.2.2. Drugs were added to the monocyte cultures together with HIV-1 at about 10^5 TCID/ml. The concentration of drugs was maintained on refeeding. HIV-1 replication was assessed by assay of the supernatant for reverse transcriptase activity. The results are expressed as mean ± std. dev. (cpm×10^−3) in Table V.

CC(=O)c1cc(Nc2cc(C)[n+](C)c(N)n2)cc(C(C)=O)c1.[I-] [Compound No. 2, 2-amino-4-(3,5-diacetylphenyl)amino-1,6-dimethylpyrimidinium iodide]
reduction in viral output (HIV-1ADA; 1 and 10 μM, lower MOI, 1 ng p24/10^6 cells): ~2 fold | anti-viral effect in cultures of replicating cells (HIV-1ADA; infected at the multiplicity of infection used to infect monocytes): No anti-viral effect was detected | effect on viral production (HIV-1ADA; up to 10 μM, higher MOI, 10 ng p24/10^6 cells): only a marginal effect | reverse transcriptase activity in supernatant (HIV-1; day-7): 0.37 ± 0.07 cpm×10^−3 | reverse transcriptase activity in supernatant (HIV-1; day-11): 0.72 ± 0.30 cpm×10^−3 | reduction in RT activity (HIV-1; day-11, 100 nM Compound No. 2 alone): ~60%
